# Test results published in patent US12685740B2, “Compositions for the elimination of senescent cells” (Universität für Bodenkultur Wien, priority 2018, dated 2026).
# Like-named read-outs stand apart in the source and are kept apart here.
# What was measured:
# [1] = tested on: Doxorubicin-induced premature senescent HDF76, HDF85, HDF161; test: Rescue of senolytic effect by manipulating cPLA2 activity, viability after 72 hours (FIG. 18); assay type: cell-based
# Procedure: Doxorubicin-induced premature senescent HDF76, HDF85, HDF161 (SIPS) and quiescent control cells (Q) were either treated for 72 hours with the combination of 1 μM ACSL4 inhibitor Triacsin C (TrC) and 1 μM ALOXS inhibitor MK886 alone or in addition with either 2.5 μM A23187 (cPLA2 activator) or 12.5 μM ASB14780 (cPLA2 inhibitor).
# This was also the case, when the enzymatic activity of the cytosolic phospholipase A2 was reduced by the small molecule inhibitor ASB14780 (Sigma Aldrich, SML1913).
# [2] = tested on: doxorubicin-induced premature senescent HUVECs; test: Alamar blue viability assay, doxorubicin-induced SIPS vs quiescent HUVECs (FIG. 5); assay type: cell-based, human; conditions: single treatment, 9 days, SIPS vs quiescent (Q) HUVECs
# Procedure: (§1) Cells were seeded at a cell density of 2,800 cells/cm^2 one day prior to the treatment. The cells were treated nine times over a period of 11 days with 60-80 μM H2O2 supplemented to the media for one hour followed by a media change. Alternatively, depending on cell type cells were seeded at a cell density of 3,500-7,000 cells/cm^2 one day prior to the treatment and SIPS was induced with 100-200 nM doxorubicin (D1515, Sigma-Aldrich) supplemented to the medium for 6 days. Induction of senescence was verified by SA-β-gal staining, p21 expression, and absence of BrdU incorporation. AnnexinV/PI staining was performed to assure that the treatment was non-lethal and SIPS HDFs were cultured and monitored for over 50 days to assure that the induced growth arrest was permanent (Terlecki-Zaniewicz et al. 2018).
# (§2) Alamar blue (DAL1100, Thermo Fisher Scientific) assay was performed according to the manufacturer's instructions. Cells were treated with the respective substances for 9 days with a media change on day 0, 3 and 6. The control was treated with the respective concentration of the solvent (DMSO).
# (§3) Premature senescence was induced in HUVECs with doxorubicin (Sigma-Aldrich), which was supplemented to the growth media for 6 days. Treatment with senolytic substances started 8 days after completion of the SIPS treatment to allow for cells to enter senescence. Quiescent cells were used as control. Growth media was supplemented with senolytic substances for 9 days with media changes every 3 days. All samples, including the control, contained the same concentration of solvent (DMSO). Subsequently, the viability was assessed using an alamar blue assay (Thermo Fisher Scientific) (FIG. 5).
# [3] = tested on: H2O2-induced premature senescent human dermal fibroblasts; test: Alamar blue viability assay, H2O2-induced premature senescent (SIPS) vs quiescent HDFs (FIG. 4); assay type: cell-based; conditions: single treatment, 9 days, SIPS vs quiescent (Q) HDFs
# Procedure: as §1, with “([…],” for “(D1515,”, “([…]” for “(Terlecki-Zaniewicz”, “2018). Alamar blue (DAL1100, Thermo Fisher Scientific) assay was performed according to the manufacturer's instructions. […] The control was treated with the respective concentration of the solvent (DMSO). Premature senescence was induced in HDF with chronic oxidative stress treatment (9 doses of H2O2 treatment over the period of 11 days). Quiescent cells were used as control. […] Subsequently, the viability was assessed using an alamar blue assay (Thermo Fisher Scientific).” for “2018).”
# [4] = tested on: Doxorubicin-induced premature senescent RPTEC1; test: Alamar blue viability assay, doxorubicin-induced SIPS vs quiescent RPTEC1 (FIG. 13); assay type: cell-based, human
# Procedure: as §1, §2
# [5] = tested on: intracellular levels of AA of HDF161; test: Quantification of intracellular arachidonic acid by ELISA (FIG. 17b); assay type: cell-based, human; conditions: 10 μM MK886 together with 100 μM Diclofenac for 6 hrs, vs solvent (1% DMSO)
# Procedure: The cells were harvested by trypsinization, centrifuged at 1000 g and 4° C. for 5 min and washed three times with cold PBS. The Cells were counted using a Vi-CELL XR (Beckman Coulter) automated cell counter and the cell pellets were resuspended in cold PBS to obtain a cell suspension with 2000-5000 cells/μl. Subsequently the cells were lysed by 30 cycles of sonication (30 s on, 30 s off) in a Bioruptor (Diagenode). Cell debris was removed by 10 min centrifugation at 1500 g and 4° C. and the supernatant was analyzed with an ELISA assay (Novus Biologicals; NBP2-66372) according to the manufacturer's instructions.
# In order to verify, whether novel senolytics can be identified in an efficient screen measuring the intracellular levels of AA, an ELISA test (Novus Biologicals; NBP2-66372) was used according to the manufacturer's instructions to first, confirm that novel senolytics identified in the examples above indeed lead to an accumulation of intracellular AA, and second, to screen for compounds, which cause an increase of intracellular levels of AA in senescent HDFs.
# [6] = tested on: Doxorubicin-induced premature senescent HDF164; test: Alamar blue viability assay, doxorubicin-induced SIPS vs quiescent HDF164 (FIG. 7, 14); assay type: cell-based, human; conditions: for EC50: read-out: EC50 for senescent cells
# Procedure: as §1, §2
# as §3, with “adult and foreskin HDFs” for “HUVECs”, “doxorubicin,” for “doxorubicin (Sigma-Aldrich),”, “Scientific).” for “Scientific) (FIG. 5).”
# as §3, with “adult HDFs” for “HUVECs”, “doxorubicin,” for “doxorubicin (Sigma-Aldrich),”, “allow” for “allow for”, “Scientific).” for “Scientific) (FIG. 5).”
# [7] = tested on: Doxorubicin-induced premature senescent HDF161; test: Alamar blue viability assay, doxorubicin-induced SIPS vs quiescent HDF161 (FIG. 6); assay type: cell-based, human; conditions: for EC50: read-out: EC50 for senescent cells
# Procedure: as §1, §2
# as §3, with “adult and foreskin HDFs” for “HUVECs”, “doxorubicin,” for “doxorubicin (Sigma-Aldrich),”, “Scientific).” for “Scientific) (FIG. 5).”
# [8] = tested on: Doxorubicin-induced premature senescent fHDF166; test: Alamar blue viability assay, doxorubicin-induced SIPS vs quiescent fHDF166 (FIG. 8, 15); assay type: cell-based, human; conditions: for EC50: read-out: EC50 for senescent cells
# Procedure: as §1, §2
# as §3, with “adult and foreskin HDFs” for “HUVECs”, “doxorubicin,” for “doxorubicin (Sigma-Aldrich),”, “Scientific).” for “Scientific) (FIG. 5).”
# as §3, with “In order to test this, premature” for “Premature”, “foreskin HDFs” for “HUVECs”, “doxorubicin,” for “doxorubicin (Sigma-Aldrich),”, “Scientific).” for “Scientific) (FIG. 5).”
# [9] = tested on: Doxorubicin-induced premature senescent HDF76, HDF161, HDF164; test: Alamar blue viability assay, SIPS vs quiescent HDF, combined data of three donors (FIG. 9, 11); assay type: cell-based, human
# Procedure: as §1, §2
# as §3, with “adult and foreskin HDFs” for “HUVECs”, “doxorubicin,” for “doxorubicin (Sigma-Aldrich),”, “Scientific).” for “Scientific) (FIG. 5).”
# cyclooxygenase = conditions: Wang et al. 2000; read-out: IC50 of inhibiting cyclooxygenase activity; cited from earlier work
# [10] = tested on: Doxorubicin-induced premature senescent HLF102; test: Alamar blue viability assay, doxorubicin-induced SIPS vs quiescent HLF102 (FIG. 12); assay type: cell-based, human
# Procedure: as §1, §2
# COX-1 = COX-1 (Homo sapiens, UniProt P23219); conditions: cited from earlier work
# [11] = 12.5 μM ASB14780 added to 1 μM TrC and 1 μM MK886, 72 hours
# [12] = MK886 combined with 50 μM Diclofenac
# [13] = increasing MK886 combined with 50 μM Diclofenac
# [14] = increasing MK886 combined with 0.4 mM ASA
# [15] = single treatment (DQ: 15 μM Quercetin with increasing Dasatinib)
# COX-1, sequence (P23219 24-599): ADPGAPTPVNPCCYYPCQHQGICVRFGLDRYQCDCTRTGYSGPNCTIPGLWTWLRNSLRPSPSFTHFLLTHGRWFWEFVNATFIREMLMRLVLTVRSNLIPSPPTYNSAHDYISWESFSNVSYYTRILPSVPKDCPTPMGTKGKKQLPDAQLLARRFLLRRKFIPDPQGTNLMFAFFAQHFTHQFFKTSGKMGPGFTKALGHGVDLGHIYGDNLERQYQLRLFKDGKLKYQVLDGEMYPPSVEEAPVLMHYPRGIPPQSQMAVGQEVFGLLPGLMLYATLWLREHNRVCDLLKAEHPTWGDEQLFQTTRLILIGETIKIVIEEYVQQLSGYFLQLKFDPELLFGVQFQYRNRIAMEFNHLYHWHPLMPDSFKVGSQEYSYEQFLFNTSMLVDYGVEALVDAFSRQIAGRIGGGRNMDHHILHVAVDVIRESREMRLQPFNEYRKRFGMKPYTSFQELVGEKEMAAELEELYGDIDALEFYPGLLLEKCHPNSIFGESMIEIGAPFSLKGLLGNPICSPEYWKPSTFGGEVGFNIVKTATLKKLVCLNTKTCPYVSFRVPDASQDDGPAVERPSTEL
compound,measurement,setting,value
CNc1ccc2oc(C[C@H]3O[C@@]4(CC[C@H]3C)O[C@H]([C@H](C)C(=O)c3ccc[nH]3)[C@H](C)C[C@H]4C)nc2c1C(=O)O [A23187],effect on the senolytic effect of 1 μM TrC and 1 μM MK886,"[1]; 2.5 μM A23187 added, 72 hours",abolishing the senolytic effect
"CC(=O)Oc1ccccc1C(=O)O [ASA, acetylsalicylic acid]",senolytic effect,[2],significant senolytic effect
same,senolytic effect,[3],significant senolytic effect
NC(CO)(CO)CO.O=C(O)CCc1ccc2c(c1)c(CCc1ccccc1)cn2-c1ccc(Oc2ccccc2)cc1 [ASB14780],effect on the cytotoxic effect of TrC and MK886 on senescent cells,[1]; [11],reduced the cytotoxic effect
same,viability of quiescent cells,[1]; [11],only affected to a minor extent
O=C(O)Cc1ccccc1Nc1c(Cl)cccc1Cl [Diclofenac],EC50 fold change between senescent and quiescent cells,[4]; single treatment,3.02 fold
CC1(C)Cc2c(-c3ccccc3)c(-c3ccc(Cl)cc3)c(CC(=O)O)n2C1 [Licofelone],senolytic effect,[2],significant senolytic effect
CC(C)c1ccc2c(c1)c(SC(C)(C)C)c(CC(C)(C)C(=O)O)n2Cc1ccc(Cl)cc1 [MK886],intracellular AA levels,[5],increased
same,fold change between the EC50 of senescent versus quiescent cells,[6]; MK886 as single treatment,1.31 fold
same,EC50,[6]; MK886 as single treatment,34.7 µM
same,fold change between the EC50 of senescent versus quiescent cells,[6]; [12],1.61 fold
same,fold change between the EC50 of senescent versus quiescent cells,[6]; MK886 combined with 100 μM Diclofenac,1.88 fold
same,fold change between the EC50 of senescent versus quiescent cells,[6]; MK886 combined with 200 μM Diclofenac,1.64 fold
same,fold change between the EC50 of senescent versus quiescent cells,[6]; MK886 combined with 0.4 mM ASA,1.46 fold
same,fold change between the EC50 of senescent versus quiescent cells,[6]; MK886 combined with 0.4 mM ASA and 5 μM Oligomycin A,4.51 fold
same,EC50,[6]; [13],17.3 µM
same,EC50,[6]; increasing MK886 combined with 100 μM Diclofenac,11.2 µM
same,EC50,[6]; increasing MK886 combined with 200 μM Diclofenac,8.39 µM
same,EC50,[6]; increasing MK886 combined with 0.4 mM ASA and 5 μM Oligomycin A,9.9 µM
same,EC50,[6]; [14],30.4 µM
same,EC50 fold change between senescent and quiescent cells,[4]; increasing MK886 combined with 0.1 μM TrC and 25 μM Diclofenac,around 700 fold
same,EC50 fold change between senescent and quiescent cells,[4]; increasing MK886 combined with 25 μM Diclofenac,5.11 fold
same,EC50 fold change between senescent and quiescent cells,[4]; single treatment,2.66 fold
same,fold change between the EC50 of senescent versus quiescent cells,[7]; MK886 as single treatment,1.58 fold
same,EC50,[7]; MK886 as single treatment,26.4 µM
same,fold change between the EC50 of senescent versus quiescent cells,[7]; MK886 combined with 2 μM Celecoxib,2.55 fold
same,fold change between the EC50 of senescent versus quiescent cells,[7]; [12],2.53 fold
same,fold change between the EC50 of senescent versus quiescent cells,[7]; MK886 combined with 0.4 mM ASA,1.95 fold
same,EC50,[7]; increasing MK886 combined with 2 μM Celecoxib,17 µM
same,EC50,[7]; [13],9 µM
same,EC50,[7]; [14],18.8 µM
same,fold change between the EC50 of senescent versus quiescent cells,[8]; MK886 as single treatment,1.49 fold
same,EC50,[8]; MK886 as single treatment,34 µM
same,fold change between the EC50 of senescent versus quiescent cells,[8]; [12],2.52 fold
same,fold change between the EC50 of senescent versus quiescent cells,[8]; MK886 combined with 0.4 mM ASA,1.51 fold
same,fold change between the EC50 of senescent versus quiescent cells,[8]; MK886 combined with 0.4 mM ASA and 2 μM CsA,2.81 fold
same,EC50,[8]; [13],12.4 µM
same,EC50,[8]; increasing MK886 combined with 0.4 mM ASA and 2 μM CsA,14.9 µM
same,EC50,[8]; [14],29.6 µM
same,senolytic effect,[9]; increasing MK886 combined with 0.5 μM TrC (dual inhibition of ACSL4 and ALOX5),significant senolytic effect
same,senolytic effect,[9]; [15],not significant
same,senolytic effect,[3],significant senolytic effect
CC1(C)CCC(c2ccc(Cl)cc2)=C(CN2CCN(c3ccc(C(=O)NS(=O)(=O)c4ccc(N[C@H](CCN5CCOCC5)CSc5ccccc5)c(S(=O)(=O)C(F)(F)F)c4)cc3)CC2)C1 [Navitoclax],senolytic effect,[9]; [15],no senolytic effect
same,senolytic effect,[2],significant senolytic effect
O=c1c(O)c(-c2ccc(O)c(O)c2)oc2cc(O)cc(O)c12 [Quercetin],IC50,cyclooxygenase,≥ 100 µM
"CCC/C=C/C/C=C/C=C/C=N/NN=O [TrC, Triacsin C]",EC50 fold change between senescent and quiescent cells,[4]; single treatment,around 350 fold
same,EC50 fold change between senescent and quiescent cells,[10]; TrC as single treatment,9.19 fold
same,EC50 fold change between senescent and quiescent cells,[10]; increasing TrC combined with 1 μM MK886 and 50 μM Diclofenac,13.75 fold
same,senolytic effect,[9]; [15],significant senolytic effect
CC(C)=CCC[C@]1(C)[C@@H](CC=C(C)C)C[C@@]2(CC=C(C)C)C(=O)[C@]1(C(=O)C(C)C)C(=O)C(CC=C(C)C)=C2O [hyperforin],COX-1 inhibition relative to aspirin,COX-1,3-18 times
